Patent US7179446B2, “Simultaneous imaging of cardiac perfusion and a vitronectin receptor targeted imaging agent” (Bristol-Myers Squibb Pharma Company, priority 2000, dated 2007)

System: areas of endothelial damage, vulnerable plaque or angiogenesis in the heart
Test: Simultaneous imaging of In-111 labeled vitronectin antagonist compound and Tc99m cardiac perfusion agent (Example 67)
Type: in vivo
Settings: human, 10–40 mCi, approximately 0.5 to 6 hours following injection
Method: The compound of Examples 54, 55 or 56 is administered to a human at a level of ˜1–10 mCi of ^111In before, together with, or after the adminstration of a ^99mTc cardiac perfusion imaging agent (e.g. 10–40 mCi of ^99mTc-Sestamibi). […] The simultaneous imaging of the In-111 labeled vitronectin antagonist compound and the Tc99m cardiac perfusion agent is carried out by a method such as that reported by White (White, S A, Mueller, D H, Smith H E, et al. J Nucl Med Tech 1984, 12: 124–125) or Hillel (Hillel P G, Tindale W B, Taylor C J, et al. Nucl Med Conmun 1998, 19, 761–769).

SMILES: [C-]#[N+]CC(C)(C)OC.[C-]#[N+]CC(C)(C)OC.[C-]#[N+]CC(C)(C)OC.[C-]#[N+]CC(C)(C)OC.[C-]#[N+]CC(C)(C)OC.[C-]#[N+]CC(C)(C)OC.[Tc] [^99mTc-Sestamibi, hexakis methoxyisobutyl isonitrile Technetium(I)]
- distribution of the ^99mTc perfusion agent: distributed in the myocardium in relation to regional myocardial blood flow
